Experiment: Miscibility of pheromones with corn oil or triethylcitrate
Format: physicochemical
Excerpt: Miscibility of the active ingredient and diluents were further examined by forming mixtures of various active ingredients (pheromones) with corn oil or triethylcitrate. The final composition of the mixture produced was 40 vol. % pheromones and 60 vol. % diluent (i.e., corn oil or triethyl citrate). The individual pheromones evaluated were: tomato pinworm, pink bollworm, leafroller, oriental fruitmoth, and coddling moth.

Dissolution in both corn oil and triethyl citrate (pheromone solid at room temperature): dissolved freely
Miscibility in corn oil or triethylcitrate (room temperature, 40 vol. % pheromones/60 vol. % diluent): completely miscible
SMILES: C/C=C/C=C/CCCCCCCO [coddling moth]

Reference: US20030124167A1, “Pest controlling” (priority 1999, published 2003)
